Test results as given in US12698324B2, “Cystic lymphangioma treatment drug” (National University Corporation University of Toyama, priority 2020, dated 2026).

System: cystic lymphangioma of PDGFRβ knockout mice
Test: Therapy experiment in cystic lymphangioma of PDGFRβ knockout mice (diameter of LYVE1-positive lymph vessels)
Type: in vivo, mouse
Details: intraperitoneal three times a week (Erlotinib 50 mg/kg; antibody 5 μg/body), compared with the group of PDGFRβ knockout mice without treatment
Description: To PDGFRβ knockout mice, a neutralizing antibody against amphiregulin (AF989, R&D Systems Inc.) and Erlotinib having EGFR inhibitory activity (Selleck Biotech) were administered for the purpose of treating cystic lymphangioma. The neutralizing antibody against amphiregulin was dissolved in PBS at 25 μg/mL and administered intraperitoneally at 5 μg/body three times a week. Erlotinib was dissolved in DMSO at 50 mg/mL and administered intraperitoneally at 50 mg/kg three times a week. A group of PDGFRβ knockout mice without treatment and a control group of mice in which PDGFRβ was not knocked out were also prepared.
The tissues of PDGFRβ knockout mice were fixed with paraformaldehyde (PFA). Paraffin sections were prepared using fixed samples. The tissue sections were washed with a buffer and antigen-retrieved by heating in a microwave oven for 5 minutes using a commercial retrieval solution. Next, each sample was washed with a buffer solution and the tissues or the cells were subjected to a commercial blocking solution (room temperature, one hour).
Next, each sample was washed with a buffer and subjected to an anti-LYVE1 antibody (Abcam, a primary antibody) at optimum concentration (4° C., overnight). […] The obtained sample was observed and photographed with a fluorescence microscope.
The diameter of each lymph vessel was measured with ImageJ imaging software based on the photographed images. […]

Question: With `C#Cc1cccc(Nc2ncnc3cc(OCCOC)c(OCCOC)cc23)c1` [Erlotinib] as the molecule, how does the “diameter of dilated lymph vessels” value read?
Answer: The value was “significantly reduced”.
